`COCCOc1cc2ncc(C#N)c(NC3CCCC3)c2cc1OC` [Example 9, 4-Cyclopentylamino-6-methoxy-7-(2-methoxyethoxy)-3-quinolinecarbonitrile] returned a melting point of 87 to 90 °C.

For the molecule `COCCOc1cc2ncc(C#N)c(Nc3cc(OC)c(Cl)cc3Cl)c2cc1OC` [Example 14, 4-[(2,4-Dichloro-5-methoxyphenyl)amino]-6-methoxy-7-[2-methoxyethoxy]-3-quinolinecarbonitrile], the melting point lay within 210 to 212 °C.

The molecule `COc1cc(Nc2c(C#N)cnc3cc(SCc4ccccc4)c(OC)cc23)c(Cl)cc1Cl` [Example 11, 7-Benzylthio-4-[(2,4-dichloro-5-methoxyphenyl)amino]-6-methoxy-3-quinolinecarbonitrile] yielded a melting point of 123 to 125 °C.

For the origin of these results see US6780996B2, “Process for the preparation of 7-substituted-3 quinolinecarbonitriles” (Wyeth Holdings Corporation, priority 2002, dated 2004).
